# Assay results: publication PMC5309245, “Discovery and Characterization of Diazenylaryl Sulfonic Acids as Inhibitors of Viral and Bacterial Neuraminidases” (Frontiers in Microbiology, 2017)
# How the values were obtained:
# [1] = target: T1, S. pneumoniae DSM20566 NA (NanA) (Streptococcus pneumoniae, UniProt P62575); assay: FL NA inhibition assay, S. pneumoniae DSM20566; assay type: biochemical; details: MUNANA substrate; for IC50: read-out: NA inhibition using FL assay IC50, S. p. DSM20566
# T1 construct: host or cells: either rNanA from E. coli BL21(DE3) or total precipitated protein of S. pneumoniae DSM20566
# T1 sequence (P62575 54-1035): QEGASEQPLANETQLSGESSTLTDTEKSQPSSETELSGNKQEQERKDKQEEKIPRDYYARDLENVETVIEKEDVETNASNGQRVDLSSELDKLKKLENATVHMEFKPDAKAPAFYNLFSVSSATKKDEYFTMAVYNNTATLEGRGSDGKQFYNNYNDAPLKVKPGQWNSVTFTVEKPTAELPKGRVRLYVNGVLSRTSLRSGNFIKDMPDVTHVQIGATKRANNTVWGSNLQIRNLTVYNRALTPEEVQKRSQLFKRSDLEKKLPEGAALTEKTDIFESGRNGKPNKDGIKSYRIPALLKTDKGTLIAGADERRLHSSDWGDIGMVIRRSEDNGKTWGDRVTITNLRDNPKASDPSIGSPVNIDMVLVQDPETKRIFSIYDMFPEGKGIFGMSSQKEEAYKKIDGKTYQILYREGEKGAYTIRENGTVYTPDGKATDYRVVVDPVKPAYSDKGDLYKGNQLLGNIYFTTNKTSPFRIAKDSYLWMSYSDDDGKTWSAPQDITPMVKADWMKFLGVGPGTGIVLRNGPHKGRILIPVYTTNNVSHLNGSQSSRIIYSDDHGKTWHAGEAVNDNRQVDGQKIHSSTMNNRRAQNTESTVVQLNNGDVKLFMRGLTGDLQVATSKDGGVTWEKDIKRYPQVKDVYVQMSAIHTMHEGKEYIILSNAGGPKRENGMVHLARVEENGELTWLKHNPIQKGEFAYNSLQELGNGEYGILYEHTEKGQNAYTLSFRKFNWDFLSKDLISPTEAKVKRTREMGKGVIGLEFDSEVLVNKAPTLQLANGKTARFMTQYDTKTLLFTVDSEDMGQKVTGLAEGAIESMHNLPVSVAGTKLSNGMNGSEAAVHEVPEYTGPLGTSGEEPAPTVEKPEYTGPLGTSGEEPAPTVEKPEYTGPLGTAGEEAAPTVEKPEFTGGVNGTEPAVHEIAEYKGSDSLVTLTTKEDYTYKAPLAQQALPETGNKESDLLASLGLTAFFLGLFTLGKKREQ
# IAV 5258/09 NA = assay: Hemagglutination (HA)-based NA inhibition assay, IAV 5258/09; assay type: cell-based, influenza A virus A/Jena/5258/2009 (H1N1); details: human erythrocytes
# influenza A virus HK/68 = assay: microbe, parasite or virus in culture; assay type: cell-based, influenza A virus A/Hong Kong/68 (H3N2)
# [2] = tested on: S. pneumoniae DSM20566 biofilm; assay: Biofilm inhibition assay; assay type: cell-based, Streptococcus pneumoniae DSM20566; details: 24 h, maximum 50 μM
# human erythrocytes [3] = assay type: cell-based; details: human erythrocytes, 4 h at 37°C and 12 h at 4°C
# Protocol: (§1) Viral (whole virus) and bacterial NA activity as well as their inhibition were measured by using a fluorescence (FL) assay with the substrate 2′-(4-methylumbelliferyl)-α-D-N-acetylneuraminic acid sodium salt hydrate (MUNANA, 100 μM; Sigma-Aldrich GmbH, Taufkirchen, Germany), and/or a hemagglutination (HA)-based NA inhibition assay (HA assay) with human erythrocytes (Institute of Transfusion Medicine, University Hospital Jena, Jena, Germany), both assays as published recently (Richter et al., [2015]). Recombinant NanA (rNanA) and total precipitated bacterial protein of S. pneumoniae DSM20566 were used in FL and HA assays. Interference of the compounds with the FL signal (self-fluorescence and quenching) was excluded as described previously (Richter et al., [2015]). […] Each compound was tested at least three times in both NA inhibition assays.
# Supplementary Table 1. […]
# eTest compounds lysed the human erythrocytes (4 h at 37°C and 12 h at 4°C).
# [4] = tested on: influenza A virus 8178/09; assay: microbe, parasite or virus in culture; assay type: cell-based, influenza A virus A/Jena/8178/2009 (H1N1)
# human erythrocytes [5] = assay type: cell-based; details: human erythrocytes, 2 h at 4°C
# Protocol: as §1
# Supplementary Table 1. Assay interference phenomena of test compounds in the HA-based […]
# sample concentrations [µM] in viral HA-assay bacterial HA-assay […]
# hem- prevention of erythrocyte hem- erythrocyte agglutinationa virus-induced lysisc agglutinationd lysise […]
# cTest compounds lysed the human erythrocytes (2 h at 4°C). […]
# [6] = target: IAV HK/68 NA (whole virus) (Influenza A virus, UniProt Q91MA2); assay: biochemical; parameters: species or system influenza A virus A/Hong Kong/68 (H3N2); details: for IC50: NA inhibition using FL assay IC50, IAV HK/68
# Sequence of IAV HK/68 NA (whole virus) (Q91MA2 whole entry, looked up): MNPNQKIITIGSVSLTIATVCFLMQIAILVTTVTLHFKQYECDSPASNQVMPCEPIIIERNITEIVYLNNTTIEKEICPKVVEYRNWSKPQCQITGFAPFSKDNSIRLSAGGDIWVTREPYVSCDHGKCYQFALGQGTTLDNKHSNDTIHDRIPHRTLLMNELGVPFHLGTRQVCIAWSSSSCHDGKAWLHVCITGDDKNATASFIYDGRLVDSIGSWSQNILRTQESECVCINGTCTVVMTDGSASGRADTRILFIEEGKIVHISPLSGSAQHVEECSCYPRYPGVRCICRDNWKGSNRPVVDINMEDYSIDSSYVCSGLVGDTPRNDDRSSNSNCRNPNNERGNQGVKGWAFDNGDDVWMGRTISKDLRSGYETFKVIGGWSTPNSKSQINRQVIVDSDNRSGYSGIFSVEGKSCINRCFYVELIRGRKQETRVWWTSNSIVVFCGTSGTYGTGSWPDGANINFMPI
# S. pneumoniae DSM20566 = assay: Microtiter broth microdilution assay, planktonic growth; assay type: cell-based, Streptococcus pneumoniae DSM20566; details: 18 h, maximum 50 μM
# influenza A virus WSN/33 = assay: microbe, parasite or virus in culture; assay type: cell-based, influenza A virus A/WSN/1933 (H1N1)
# in vitro = details: dog
# [7] = target: T2, S. pneumoniae DSM20566 NA (Streptococcus pneumoniae, UniProt P62575); assay: HA-based NA inhibition assay, S. pneumoniae DSM20566; assay type: cell-based; details: human erythrocytes
# T2 construct: host or cells: either rNanA from E. coli BL21(DE3) or total precipitated protein of S. pneumoniae DSM20566
# T2 sequence (P62575 54-1035): as the sequence (P62575 54-1035) above
# [8] = target: IAV WSN/33 NA-wt (whole virus) (Influenza A virus, UniProt P03470); assay: biochemical; parameters: species or system influenza A virus A/WSN/1933 (H1N1); details: for IC50: NA inhibition using FL assay IC50, IAV WSN/33
# Sequence of IAV WSN/33 NA-wt (whole virus) (P03470 whole entry, looked up): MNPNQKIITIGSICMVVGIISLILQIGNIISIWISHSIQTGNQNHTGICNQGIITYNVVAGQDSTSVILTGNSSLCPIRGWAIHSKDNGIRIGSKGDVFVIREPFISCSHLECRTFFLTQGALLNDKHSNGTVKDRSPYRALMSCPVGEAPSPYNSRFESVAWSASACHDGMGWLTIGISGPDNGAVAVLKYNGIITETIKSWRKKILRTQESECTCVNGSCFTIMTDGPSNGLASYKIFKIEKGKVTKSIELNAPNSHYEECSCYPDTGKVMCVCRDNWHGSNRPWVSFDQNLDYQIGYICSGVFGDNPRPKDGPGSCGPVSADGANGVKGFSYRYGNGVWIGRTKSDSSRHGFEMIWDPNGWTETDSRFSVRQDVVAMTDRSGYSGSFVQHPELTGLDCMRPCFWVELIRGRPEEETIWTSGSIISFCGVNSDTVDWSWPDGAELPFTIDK
SMILES,IC50 [1] [µM],"NA inhibition using HA assay MIC, IAV 5258/09 (IAV 5258/09 NA)","50% inhibitory concentration, influenza A virus HK/68 (influenza A virus HK/68)","IC50 ([2]; Streptococcus pneumoniae, DSM20566, read-out: 50% inhibitory concentration, S. pneumoniae DSM20566 biofilm formation) [µM]","sample concentrations provoking erythrocyte lysis, bacterial HA-assay (human erythrocytes [3])","50% inhibitory concentration, influenza A virus 8178/09 [4]","sample concentrations provoking erythrocyte lysis, viral HA-assay (human erythrocytes [5])",IC50 [6] [µM],"50% inhibitory concentration, S. pneumoniae DSM20566 planktonic growth (S. pneumoniae DSM20566)","50% inhibitory concentration, influenza A virus WSN/33 (influenza A virus WSN/33)",CC50 (in vitro) [µM],"NA inhibition using HA assay MIC, S. p. DSM20566 [7]","50% inhibitory concentration, S. pneumoniae DSM20566 biofilm formation [2]",IC50 [8] [µM],"NA inhibition using FL assay IC50, IAV HK/68 [6]","NA inhibition using FL assay IC50, IAV WSN/33 [8]","NA inhibition using FL assay IC50, S. p. DSM20566 [1]"
Cc1ccccc1/N=N/c1ccc(/N=N/c2c(O)ccc3cc(S(=O)(=O)O)cc(S(=O)(=O)O)c23)c(C)c1 [Compound 5],0.97 ± 0.3,10.00 ± 0.00 µM,Not active,42.2 ± 2.57,no,Not active,no,17.8 ± 3.25,Not active,Not active,> 100,2.44 ± 1.25 µM,,,,,
COc1cc(/N=N/c2ccc(S(=O)(=O)O)cc2)ccc1/N=N/c1c(O)ccc2cc(S(=O)(=O)O)ccc12 [Compound 8],3.9 ± 0.51,Not active,Not active,,no,Not active,no,,Not active,Not active,> 100,Not active,Not active,6.51 ± 0.72,Not active,,
O=S(=O)(O)c1ccc(/N=N/c2ccc(/N=N/c3c(O)c(S(=O)(=O)O)cc4cc(S(=O)(=O)O)ccc34)cc2)cc1 [Compound 9],32 ± 10.9,Not active,Not active,,no,Not active,no,,Not active,Not active,> 100,Not active,Not active,22.7 ± 2.91,Not active,,
O=S(=O)(O)c1ccc2c(/N=N/c3ccccc3)c(O)ccc2c1 [Compound 10],10.2 ± 1.35,Not active^c,Not active,,no,Not active,no,,Not active,Not active,> 100,Not active^c,Not active,,Not active,Not active,
O=[N+]([O-])c1ccc(/N=N/c2c(O)ccc3cc(S(=O)(=O)O)ccc23)cc1 [Compound 11],23.2 ± 13.1,Not active,Not active,,no,Not active,no,77.3 ± 10.6,Not active,Not active,> 100,Not active,Not active,33.1 ± 4.6,,,
O=[N+]([O-])c1ccc(/N=N/c2c(O)c(S(=O)(=O)O)cc3cc(S(=O)(=O)O)ccc23)cc1 [Compound 12],,Not active,Not active,,no,Not active,no,,Not active,Not active,> 100,Not active,Not active,,Not active,Not active,Not active
O=[N+]([O-])c1cccc(/N=N/c2c(O)c(S(=O)(=O)O)cc3cc(S(=O)(=O)O)ccc23)c1 [Compound 13],,Not active,Not active,,no,Not active,no,,Not active,Not active,> 100,Not active,Not active,,Not active,Not active,Not active
O=S(=O)(O)c1ccc2c(/N=N/c3c(O)ccc4ccccc34)cccc2c1 [Compound 14],5.74 ± 1.41,Not active^c,Not active,,no,Not active,no,83 ± 6.25,Not active,Not active,> 100,Not active^c,Not active,28.9 ± 6.9,,,
